The nature of data set [1]: Chemical stability in 100 mM phosphate buffer at pH 7.4 at 100 uM after 60 mins by HPLC analysis. The format is physicochemical. Particulars: pH 7.4, 1 h; call rule not given here.
The next data set concerns the target Albumin (Homo sapiens, UniProt P02768). Put plainly: Binding affinity to human serum albumin in 100 mM phosphate buffer at pH 7.4 assessed as formation of biotin-LC-hydrazide labeled protein carbonyls at 100 uM pretreated 60 mins before biotin-LC-hydrazide challenge measured after 60 mins by SDS-PAGE/Western blotting. The data set is classed as ADME. The conditions noted are these: isolated protein, pH 7.4, 1 h.

Chain of Albumin (P02768 whole entry): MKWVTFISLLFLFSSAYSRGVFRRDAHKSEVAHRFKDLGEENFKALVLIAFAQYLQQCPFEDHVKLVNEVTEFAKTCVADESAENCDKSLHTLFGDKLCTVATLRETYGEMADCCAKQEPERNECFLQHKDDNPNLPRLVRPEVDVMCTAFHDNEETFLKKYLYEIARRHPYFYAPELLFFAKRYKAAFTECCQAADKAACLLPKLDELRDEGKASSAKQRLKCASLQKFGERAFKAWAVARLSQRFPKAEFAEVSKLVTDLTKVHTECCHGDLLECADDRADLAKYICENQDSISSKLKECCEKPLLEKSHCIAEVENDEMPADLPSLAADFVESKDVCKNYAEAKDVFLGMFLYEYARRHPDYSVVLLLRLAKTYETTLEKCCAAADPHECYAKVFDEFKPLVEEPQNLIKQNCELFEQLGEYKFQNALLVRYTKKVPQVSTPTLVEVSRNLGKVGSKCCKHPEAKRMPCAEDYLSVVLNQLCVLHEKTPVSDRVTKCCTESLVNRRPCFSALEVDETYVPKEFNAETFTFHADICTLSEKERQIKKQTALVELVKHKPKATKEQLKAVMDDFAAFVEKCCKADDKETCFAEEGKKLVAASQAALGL

Take `Oc1cc(O)c2c(c1)O[C@H](c1cc(O)c(O)c(O)c1)[C@H](O)C2` [EPIGALLOCATECHIN]: in data set [1], the Stability entry is listed as “Unstable”. Further, the outcome on Albumin was Active.

For `COc1cc(C(=O)O[C@@H]2Cc3c(O)cc(O)cc3O[C@@H]2c2cc(O)c(O)c(O)c2)cc(O)c1O`, the Stability result in data set [1] is on record as “Unstable”. Further, the result at Albumin was Active.

Take `COc1c(O)cc([C@H]2Oc3cc(O)cc(O)c3C[C@H]2OC(=O)c2cc(O)c(O)c(O)c2)cc1O`: the Stability entry in data set [1] was “Stable”. Also, on Albumin, the result was Active.

On to `O=C(O)c1ccc(O)c(O)c1` [PROTOCATECHUIC ACID], for which the Activity entry at Albumin was “Not Active”.

Take `O=C(O)c1cc(O)cc(O)c1` [3,5-DIHYDROXYBENZOIC ACID]: the Activity result at Albumin is on record as “Not Active”.

In the case of `COC(=O)c1cc(O)c(O)c(O)c1` [GALLIC ACID METHYL ESTER], the Activity result on Albumin is listed as “Not Active”.

As to `Oc1cc(O)c2c(c1)O[C@H](c1ccc(O)c(O)c1)[C@H](O)C2` [(-)-EPICATECHIN], in data set [1], the Stability result was “Stable”. Besides, on Albumin, the result was Active.

`O=C(O[C@@H]1Cc2c(O)cc(O)cc2O[C@@H]1c1ccc(O)c(O)c1)c1cc(O)c(O)c(O)c1` [EPICATECHIN GALLATE]: the Stability result in data set [1] is “Stable”. Moreover, the outcome at Albumin was Active.

In the case of `COc1c(O)cc(C(=O)O[C@@H]2Cc3c(O)cc(O)cc3O[C@@H]2c2cc(O)c(O)c(O)c2)cc1O`, the result at Albumin was Active.

As to `Oc1cccc(O)c1O` [PYROGALLOL], the outcome at Albumin was Active.

As for `O=C(O)c1cccc(O)c1O` [2,3-DIHYDROXYBENZOIC ACID], the Activity result on Albumin is “Not Active”.

With `O=C(O[C@@H]1Cc2c(O)cc(O)cc2O[C@@H]1c1cc(O)c(O)c(O)c1)c1cc(O)c(O)c(O)c1` [EPIGALOCATECHIN GALLATE], in data set [1], the Stability entry is “Unstable”. Moreover, the outcome on Albumin was Active.
